≈ marks a conversion by molar mass, not a printed value. Like-named read-outs stand apart in the source and are kept apart here.
Columns and labels:
[1] = system: B. anthracis; details: cited from earlier work
[2] = system: B. mallei; details: cited from earlier work
[3] = system: B. pseudomallei; details: cited from earlier work
[4] = system: Y. pestis; details: cited from earlier work
[5] = system: Y. pestis (C092); design: species or system BALB/c mice; details: mouse, in vivo; for PD50: ip
[6] = system: Legionella pneumophila; assay: microbe, parasite or virus in culture; assay type: cell-based
[7] = system: B. anthracis; assay: microbe, parasite or virus in culture; assay type: cell-based
[8] = system: B. mallei; assay: microbe, parasite or virus in culture; assay type: cell-based
[9] = system: B. anthracis AMES strain; design: species or system BALB/c mice; details: mouse, in vivo; for PD50: ip
[10] = system: Y. pestis; assay: microbe, parasite or virus in culture; assay type: cell-based
[11] = system: Enterobacter aerogenes; details: cited from earlier work
[12] = system: Enterococcus facecalis (VRE); details: cited from earlier work
[13] = system: Acinetobacter baumannii; details: cited from earlier work
[14] = system: F. tularensis; assay: microbe, parasite or virus in culture; assay type: cell-based
[15] = system: Streptococcus pyogenes; details: cited from earlier work
[16] = system: Salmonella spp.; details: cited from earlier work
[17] = system: Staphylococcus aureus (MRSA); details: cited from earlier work
[18] = system: Escherichia coli; details: cited from earlier work
[19] = system: E. faecalis; assay: animal or person; assay type: in vivo, Mice; details: Enterococcus faecalis, in Mus musculus, read-out: PD50/ED50
[20] = system: Streptococcus pneumonia; details: cited from earlier work
[21] = system: Pseudomonas aeruginosa; details: cited from earlier work
[22] = system: Clostridium perfringens; details: cited from earlier work
[23] = system: E. coli; assay: animal or person; assay type: in vivo, Mice; details: Escherichia coli, in Mus musculus, read-out: PD50/ED50
[24] = system: Streptococcus pneumoniae (PRSP); details: cited from earlier work
[25] = system: Enterococcus faecium (VRE); details: cited from earlier work
[26] = system: Burkholderia cepacia; details: cited from earlier work
[27] = system: Enterococcus faecium (VSE); details: cited from earlier work
[28] = system: Coagulase-negative staphylococci; details: cited from earlier work
[29] = system: Bacteroides fragilis; details: cited from earlier work
[30] = system: Moraxella catarrhalis; details: cited from earlier work
[31] = system: Enterococcus faecalis (VSE); details: cited from earlier work
[32] = system: Streptococcus agalactiae; details: cited from earlier work
[33] = system: B. mallei (China 7); design: species or system BALB/c mice; details: mouse, in vivo
[34] = system: B. pseudomallei; assay: microbe, parasite or virus in culture; assay type: cell-based; details: Burkholderia pseudomallei
[35] = system: H. influenza; assay: animal or person; assay type: in vivo, Mice; details: Mus musculus, read-out: PD50/ED50
[36] = system: Proteus mirabilis; details: cited from earlier work
[37] = system: Chlamydia pneumonia; assay: microbe, parasite or virus in culture; assay type: cell-based
[38] = system: Enterobacter cloacae; details: cited from earlier work
[39] = system: Staphylococcus aureus (MSSA); details: cited from earlier work
[40] = system: Clostridium difficile; details: cited from earlier work
[41] = system: Haemophilus influenza; details: cited from earlier work
[42] = system: bacteria isolated from clinical specimens; assay type: cell-based
[43] = system: Klebsiella pneumonia; details: cited from earlier work
[44] = system: Shigella spp.; details: cited from earlier work

Q: With `O=C(O)c1cn(C2CC2)c2cc(N3CCNCC3)c(F)cc2c1=O` [Ciprofloxacin] as the compound, how does the MIC50 [1] read?
A: 0.0625 µg/mL (≈ 0.189 µM)

Q: And the MIC90 [1]?
A: 0.125 µg/mL (≈ 0.377 µM)

Q: What about the MIC range [1] of the same compound?
A: 0.03125 to .25 µg/mL

Q: What about the MIC50 [2] of the same compound?
A: 0.5 µg/mL (≈ 1.51 µM)

Q: And the MIC90 [2]?
A: 1 µg/mL (≈ 3.02 µM)

Q: And the MIC range [2]?
A: 0.0625 to 1 µg/mL

Q: What about the MIC50 [3] of the same compound?
A: 2 µg/mL (≈ 6.04 µM)

Q: What about the MIC90 [3] of the same compound?
A: 4 µg/mL (≈ 12.1 µM)

Q: And the MIC range [3]?
A: 0.5 to 32 µg/mL

Q: What about the MIC90 [4] of the same compound?
A: 0.03125 µg/mL (≈ 0.0943 µM)

Q: And the MIC range [4]?
A: 0.0039 to 0.0625 µg/mL

Q: Which PD50 [5] does the source give for `C[C@H]1c2cccc(O)c2C(=O)C2=C(O)[C@]3(O)C(=O)C(C(N)=O)=C(O)[C@@H](N(C)C)[C@@H]3[C@@H](O)[C@@H]21` [Doxycycline, reference compound] here?
A: 29.7 (range of 20.7 to 38.8) mg/kg

Q: And the MIC50 [6]?
A: 1 µg/mL (≈ 2.25 µM)

Q: And the MIC90 [6]?
A: 1 µg/mL (≈ 2.25 µM)

Q: What about the MIC ([7]; Bacillus anthracis) of the same compound?
A: 0.03 µg/mL (≈ 0.0675 µM)

Q: What about the MIC ([8]; Burkholderia mallei) of the same compound?
A: 0.06 µg/mL (≈ 0.135 µM)

Q: What about the PD50 [9] of the same compound?
A: 2.0 (range of 1.4 to 2.6) mg/kg

Q: And the MIC ([10]; Yersinia pestis)?
A: 0.5 µg/mL (≈ 1.13 µM)

Q: With `CN(C)c1cc(CNCC(C)(C)C)c(O)c2c1C[C@H]1C[C@H]3[C@H](N(C)C)C(O)=C(C(N)=O)C(=O)[C@@]3(O)C(O)=C1C2=O` [Compound A, 9-[(2,2-dimethyl-propylamino)-methyl]minocycline] as the compound, how does the MIC50 [11] read?
A: 2/2 μg/mL

Q: What about the MIC90 [11] of the same compound?
A: 4/4 μg/mL

Q: What about the “percent survival (comparison in words, FIG. 1)” value ([5]; 40 mg/kg) of the same compound?
A: more effective as doxycycline at 40 mg/kg and is at least as effective or ciprofloxacin at 15 mg/kg

Q: And the PD50 [5]?
A: 23.5 (range of 20.1 to 27.0 mg/kg)

Q: And the MIC50 [12]?
A: 0.12/0.25 μg/mL

Q: And the MIC90 [12]?
A: 0.25/8 μg/mL

Q: What about the MIC50 [6] of the same compound?
A: 0.25 µg/mL (≈ 0.449 µM)

Q: What about the MIC90 [6] of the same compound?
A: 0.25 µg/mL (≈ 0.449 µM)

Q: And the MIC50 [13]?
A: 0.25/0.25 μg/mL

Q: What about the MIC90 [13] of the same compound?
A: 4/2 μg/mL

Q: What about the MIC range [14] of the same compound?
A: 0.5 to 2 µg/mL

Q: What about the “in vitro activity (in words)” value [14] of the same compound?
A: significant activity

Q: What about the MIC50 ([14]; Francisella tularensis) of the same compound?
A: 1 µg/mL (≈ 1.8 µM)

Q: What about the MIC90 ([14]; Francisella tularensis) of the same compound?
A: 2 µg/mL (≈ 3.59 µM)

Q: And the MIC50 [15]?
A: 0.12/25^ μg/mL

Q: And the MIC90 [15]?
A: 0.12/0.25 μg/mL

Q: What about the MIC50 [16] of the same compound?
A: 2/4 μg/mL

Q: What about the MIC90 [16] of the same compound?
A: 8/32 μg/mL

Q: What about the MIC50 [17] of the same compound?
A: 0.25/0.12 μg/mL

Q: And the MIC90 [17]?
A: 0.25/2 μg/mL

Q: What about the MIC50 [18] of the same compound?
A: 2/8 μg/mL

Q: And the MIC90 [18]?
A: 4/>32 μg/mL

Q: What about the ED50 [19] of the same compound?
A: 4.5 mg/kg

Q: What about the MIC50 [20] of the same compound?
A: 0.12/0.25 μg/mL

Q: And the MIC90 [20]?
A: 0.12/8 μg/mL

Q: And the MIC50 [21]?
A: 32/32 μg/mL

Q: And the MIC90 [21]?
A: 64/32 μg/mL

Q: What about the MIC50 [22] of the same compound?
A: 1/2 μg/mL

Q: And the MIC90 [22]?
A: 4/8 μg/mL

Q: And the ED50 [23]?
A: 4.3 mg/kg

Q: And the MIC50 [24]?
A: 0.12/8 μg/mL

Q: What about the MIC90 [24] of the same compound?
A: 0.12/8 μg/mL

Q: What about the MIC50 [25] of the same compound?
A: 0.12/8 μg/mL

Q: What about the MIC90 [25] of the same compound?
A: 0.12/8 μg/mL

Q: And the MIC50 [26]?
A: 2/4 μg/mL

Q: What about the MIC90 [26] of the same compound?
A: 64/>32 μg/mL

Q: What about the MIC50 [27] of the same compound?
A: 0.12/0.12 μg/mL

Q: What about the MIC90 [27] of the same compound?
A: 0.12/16^ μg/mL

Q: What about the MIC50 [28] of the same compound?
A: 0.25/0.25 μg/mL

Q: And the MIC90 [28]?
A: 1/2 μg/mL

Q: What about the MIC50 [29] of the same compound?
A: 1/8 μg/mL

Q: What about the MIC90 [29] of the same compound?
A: 4/16 μg/mL

Q: What about the MIC50 [30] of the same compound?
A: 0.25/0.25 μg/mL

Q: What about the MIC90 [30] of the same compound?
A: 0.25/0.25 μg/mL

Q: And the MIC50 [31]?
A: 0.25/8 μg/mL

Q: What about the MIC90 [31] of the same compound?
A: 0.5/8^ μg/mL

Q: What about the MIC range [7] of the same compound?
A: <0.03125 to 0.0625 µg/mL

Q: What about the “in vitro activity (in words)” value [7] of the same compound?
A: highly active

Q: And the MIC ([7]; Bacillus anthracis)?
A: < 0.03 µg/mL

Q: What about the MIC50 ([7]; Bacillus anthracis) of the same compound?
A: 0.0312 µg/mL (≈ 0.0561 µM)

Q: And the MIC90 ([7]; Bacillus anthracis)?
A: 0.0625 µg/mL (≈ 0.112 µM)

Q: What about the MIC50 [32] of the same compound?
A: 0.25/8 μg/mL

Q: What about the MIC90 [32] of the same compound?
A: 0.25/16^ μg/mL

Q: And the MIC range [8]?
A: <0.03125 to 0.5 µg/mL

Q: And the “in vitro activity (in words)” value [8]?
A: highly active

Q: What about the MIC ([8]; Burkholderia mallei) of the same compound?
A: 0.25 µg/mL (≈ 0.449 µM)

Q: And the MIC50 ([8]; Burkholderia mallei)?
A: 0.125 µg/mL (≈ 0.225 µM)

Q: And the MIC90 ([8]; Burkholderia mallei)?
A: 0.25 µg/mL (≈ 0.449 µM)

Q: What about the “percent survival (comparison in words, FIG. 2)” value [9] of the same compound?
A: as effective as doxycycline or ciprofloxacin

Q: What about the PD50 [9] of the same compound?
A: 0.8 (range of 0.6 to 1.1 mg/kg)

Q: And the MIC range [10]?
A: 0.125 to 2 µg/mL

Q: What about the “in vitro activity (in words)” value [10] of the same compound?
A: significant activity

Q: And the MIC ([10]; Yersinia pestis)?
A: 1 µg/mL (≈ 1.8 µM)

Q: And the MIC50 ([10]; Yersinia pestis)?
A: 1 µg/mL (≈ 1.8 µM)

Q: And the MIC90 ([10]; Yersinia pestis)?
A: 1 µg/mL (≈ 1.8 µM)

Q: And the “percent survival (in words, FIG. 3)” value [33]?
A: as effective as doxycycline or azithromycin

Q: What about the MIC50 [34] of the same compound?
A: 64 µg/mL (≈ 115 µM)

Q: And the MIC90 [34]?
A: > 64 µg/mL

Q: And the ED50 [35]?
A: 4.7 mg/kg

Q: And the MIC50 [36]?
A: 16/16 μg/mL

Q: And the MIC90 [36]?
A: 32/>32 μg/mL

Q: And the MIC50 [37]?
A: 0.25 µg/mL (≈ 0.449 µM)

Q: And the MIC90 [37]?
A: 0.25 µg/mL (≈ 0.449 µM)

Q: What about the MIC50 [38] of the same compound?
A: 2/4 μg/mL

Q: And the MIC90 [38]?
A: 16/16 μg/mL

Q: And the MIC50 [39]?
A: 0.25/0.12 μg/mL

Q: What about the MIC90 [39] of the same compound?
A: 0.25/0.25 μg/mL

Q: And the MIC50 [40]?
A: 0.12/0.03 μg/mL

Q: What about the MIC90 [40] of the same compound?
A: 0.12/1 μg/mL

Q: What about the MIC50 [41] of the same compound?
A: 0.5/0.5 μg/mL

Q: And the MIC90 [41]?
A: 1/1 μg/mL

Q: And the “effect of serum or lung surfactant on in vitro activity” value [42]?
A: not affected by serum or lung surfactant

Q: And the MIC50 [43]?
A: 2/2 μg/mL

Q: And the MIC90 [43]?
A: 8/>32 μg/mL

Q: What about the MIC50 [44] of the same compound?
A: 1/1 μg/mL

Q: What about the MIC90 [44] of the same compound?
A: 2/32 μg/mL

Q: With `CC[C@H]1OC(=O)[C@H](C)[C@@H](O[C@H]2C[C@@](C)(OC)[C@@H](O)[C@H](C)O2)[C@H](C)[C@@H](O[C@@H]2O[C@H](C)C[C@H](N(C)C)[C@H]2O)[C@](C)(O)C[C@@H](C)CN(C)[C@H](C)[C@@H](O)[C@]1(C)O` [azithromycin, reference compound] as the compound, how does the MIC ([8]; Burkholderia mallei) read?
A: 0.5 µg/mL (≈ 0.668 µM)

— patent US11129839B2, “Minocycline compounds for biodefense” (priority 2015, dated 2021)
